# From PMC10652874, “Investigation into the mechanism of action of the antimicrobial peptide epilancin 15X” (Frontiers in Microbiology, 2023)
# Tested on: S. carnosus TM300
# Assay: RNAseq differential gene expression
# Type: cell-based, Staphylococcus carnosus
# Description: For the RNAseq experiments, epilancin was added at sub-lethal concentration (0.5x MIC) to S. carnosus TM300 once the cultures reached an OD600 of 0.6. RNA was extracted 40 min after the treatment, using a FastRNA Pro Blue kit (MP Biomedicals). Both treated and parallel untreated samples were collected at the same time. Sequencing was performed at the Carver Biotechnology Center (UIUC). For RNAseq analysis, gene counts were read in to R (v3.1.1; [Team, 2014]), and 14/2441 genes were removed because they had fewer than 32 total counts across the six samples. edgeR’s (v3.6.7) TMM normalization ([Robinson and Oshlack, 2010]) plus negative binomial generalized log-linear model ([McCarthy et al., 2012]) was used to test for differential expression between treated and untreated groups, while accounting for pairing of U and T replicates from three different cultures. p-values were adjusted using the false discovery rate method ([Benjamini and Hochberg, 1995]).
# [1] = putative ABC transporter ATP-binding protein
# [2] = putative short chain dehydrogenase
# [3] = putative transcriptional regulator
substance,measurement,setting,value
Epilancin 15X,fold_change mobA,molybdopterin-guanine dinucleotide biosynthesis protein MobA,2.6
same,fold_change mutT,mutT/nudix family protein,5.15
same,fold_change int,phage integrase,3.38
same,fold_change pstB,phosphate transporter ATP-binding protein,3.4
same,fold_change deoB,"phosphopentomutase, gene drm",2.75
same,fold_change dltD,poly D-alanine transfer protein,2.08
same,fold_change proP,proline/betaine transporter,2.73
same,fold_change Sca_0040,putative 2-keto-4-pentenoate hydratase,2.87
same,fold_change Sca_1843,putative 3-methyladenine DNA glycosylase,2.27
same,fold_change Sca_0458,[1],3.16
same,fold_change Sca_2242,[1],2.55
same,fold_change Sca_1033,putative ABC transporter permease,3.26
same,fold_change Sca_0699,putative ABC-type cobalt transport system ATPase,2.62
same,fold_change clpL,putative ATP-dependent Clp proteinase chain clpL,7.83
same,fold_change Sca_0398,putative ATP-dependent helicase,3.32
same,fold_change Sca_0642,putative ComK family protein,2.73
same,fold_change Sca_2395,putative CorA-like Mg2+ transporter protein,2.01
same,fold_change Sca_1264,"putative DNA repair protein RadC, gene radC",12.09
same,fold_change sufB,putative FeS assembly protein SufB,3.43
same,fold_change Sca_0476,"putative HNH family endonuclease, phage associated",4.35
same,fold_change Sca_0479,"putative IstB-like ATP-binding protein, phage associated",3.51
same,fold_change sdaB,putative L-serine dehydratase subunit beta,3.71
same,fold_change sdaA,"putative L-serine dehydratase, iron-sulfur-dependent subunit alpha",2.95
same,fold_change Sca_0539,putative MerR family transcriptional regulator,2.12
same,fold_change Sca_0093,putative N-acetyltransferase,2.6
same,fold_change Sca_1976,putative NAD(P)H-flavin oxidoreductase,5.31
same,fold_change Sca_0831,putative NADH-flavin reductase,4.42
same,fold_change Sca_1692,putative NADP-dependent oxidoreductase,5.86
same,fold_change Sca_1977,putative NADPH oxidoreductase,5.07
same,fold_change Sca_2123,putative Na(+)/H(+) antiporter subunit G,2.16
same,fold_change Sca_2138,"putative PTS system, IIBC components",2.3
same,fold_change Sca_2137,putative RpiR family transcriptional regulator,2.96
same,fold_change Sca_2214,putative Tat-translocated protein,3.14
same,fold_change adc,putative acetoacetate decarboxylase,2.51
same,fold_change fadE,putative acid-CoA ligase,2.21
same,fold_change adhC,putative alcohol dehydrogenase,2.53
same,fold_change Sca_2013,"putative alcohol dehydrogenase, zinc-containing",3.05
same,fold_change aldH,putative aldehyde dehydrogenase,0.49
same,fold_change Sca_1625,putative aldehyde dehydrogenase family protein,2.65
same,fold_change Sca_1685,putative alkaline shock protein,4.53
same,fold_change Sca_1958,putative alpha-acetolactate decarboxylase,4.48
same,fold_change Sca_0638,putative alpha/beta fold family hydrolase,2.8
same,fold_change Sca_0872,putative alpha/beta hydrolase superfamily protein,3.04
same,fold_change Sca_0567,putative amidohydrolase,2.54
same,fold_change Sca_0399,putative amidophosphoribosyltransferase,3.6
same,fold_change Sca_2120,putative amino acid transporter,0.49
same,fold_change Sca_2151,putative antibiotic transport-associated protein,2.04
same,fold_change Sca_0467,"putative antirepressor, phage associated",4.9
same,fold_change brnQ,putative branched-chain amino acid carrier,0.5
same,fold_change katE/B,putative catalase,5.7
same,fold_change Sca_0538,putative cation exporting ATPase,5
same,fold_change czrB,putative cation-efflux system membrane protein,9.3
same,fold_change Sca_0867,putative cell wall-anchored protein,2.34
same,fold_change Sca_0698,putative cobalt transport system permease,2.09
same,fold_change copA,putative copper-transporting P-type ATPase,2.32
same,fold_change Sca_0707,putative cytochrome D ubiquinol oxidase subunit I,2.66
same,fold_change Sca_0708,putative cytochrome D ubiquinol oxidase subunit II,3.72
same,fold_change dut,"putative dUTP pyrophosphatase, phage associated",3.34
same,fold_change Sca_2298,putative dioxygenase,4.81
same,fold_change Sca_0871,putative effector domain of transcriptional regulator,3.63
same,fold_change Sca_0099,putative esterase of the alpha-beta hydrolase superfamily,2.92
same,fold_change fmdA,putative formamidase,5.66
same,fold_change Sca_1468,putative general stress protein,2.39
same,fold_change Sca_0390,putative glycerate kinase,2.11
same,fold_change Sca_1327,putative glycerophosphoryl diester phosphodiesterase,2.21
same,fold_change opuCB,putative glycine betaine/carnitine/choline transport system permease,2.02
same,fold_change Sca_0056,putative glycosyl transferase,2.07
same,fold_change Sca_1969,putative glyoxylase family protein,4.21
same,fold_change hrcA,putative heat-inducible transcriptional repressor,3.08
same,fold_change lrgA,putative holin-like protein LrgA,3.61
same,fold_change Sca_0480,"putative holliday junction resolvase, phage associated",3.23
same,fold_change Sca_2166,putative indole-3-pyruvate decarboxylase,2.06
same,fold_change Sca_0081,putative intracellular protease/amidase,5.75
same,fold_change Sca_1648,putative mannose-6-phosphate isomerase,0.5
same,fold_change Sca_0366,putative membrane-bound sulfatase,2.62
same,fold_change adaB,putative methylated DNA-protein cysteine methyltransferase,2.26
same,fold_change Sca_2129,putative monovalent cation/H+ antiporter subunit A,3.98
same,fold_change Sca_2128,putative monovalent cation/H+ antiporter subunit B,2.49
same,fold_change Sca_2127,putative monovalent cation/H+ antiporter subunit C,2.24
same,fold_change Sca_2126,putative monovalent cation/H+ antiporter subunit D,2.35
same,fold_change Sca_2125,putative monovalent cation/H+ antiporter subunit E,2.21
same,fold_change Sca_2124,putative monovalent cation/H+ antiporter subunit F,2.43
same,fold_change Sca_0449,putative nitroreductase,2.26
same,fold_change mocA,putative oxidoreductase protein,5.88
same,fold_change Sca_0684,putative peptidase,2.13
same,fold_change Sca_1042,putative peptidase (peptidase family M20/M25/M40),0.49
same,fold_change Sca_2130,putative phage integrase family protein,8.35
same,fold_change pstA,putative phosphate ABC transporter permease,3.6
same,fold_change Sca_1034,putative phosphate transport system substrate-binding protein,3.27
same,fold_change Sca_1030,putative phosphate uptake regulator protein,3.27
same,fold_change Sca_0075,putative phospholipase/carboxylesterase,3.41
same,fold_change Sca_0147,putative purine regulatory protein,2.18
same,fold_change pdp,putative pyrimidine nucleoside phosphorylase,2.55
same,fold_change czrA,putative repressor protein,8.56
same,fold_change vraR,putative response regulator,8.62
same,fold_change Sca_0400,putative ribosome-associated protein,2.26
same,fold_change csdB,putative selenocysteine lyase,3.29
same,fold_change Sca_1824,[2],2.61
same,fold_change Sca_2218,[2],3.36
same,fold_change Sca_2233,[2],2.35
same,fold_change xerD,putative site-specific recombinase XerD,2.53
same,fold_change Sca_0225,putative sugar phosphate isomerase,3.01
same,fold_change trxB,putative thioredoxine reductase,2.17
same,fold_change gltC,putative transcription activator of glutamate synthase operon,2.32
same,fold_change Sca_1970,putative transcription regulator MarR family,3.81
same,fold_change Sca_2227,putative transcriptional activator TenA,2.88
same,fold_change Sca_0070,[3],5.38
same,fold_change Sca_2381,[3],3.42
same,fold_change Sca_1791,putative transmembrane protein,8.45
same,fold_change Sca_1822,putative transport protein,0.49
same,fold_change Sca_1423,putative two-component response regulator,0.49
same,fold_change norA,quinolone resistance protein NorA,2.56
same,fold_change spoVG,regulatory protein SpoVG,2.18
same,fold_change rnpA,ribonuclease P,2.02
same,fold_change prmA,"ribosomal protein L11 methyltransferase, gene SCA_1200",2.07
same,fold_change Sca_0809,secretory antigen SsaA,2.03
same,fold_change Sca_0615,sodium:alanine symporter family protein,3.14
same,fold_change Sca_2363,"succinate-semialdehyde dehydrogenase (NADP+), gene gabD",2.52
same,fold_change trmFO,"tRNA (uracil-5-)-methyltransferase Gid, gene gid",2.02
same,fold_change tdk,thymidine kinase,0.49
same,fold_change perR,transcription regulator Fur family,2.27
same,fold_change ctsR,transcription repressor of class III stress genes,5.22
same,fold_change Sca_0964,transport system binding protein,3.98
same,fold_change sipB,type-1 signal peptidase 1B,2.45
same,fold_change sipA,type-I signal peptidase,2.68
